The subject of the test is SK-N-MM (SKNMM-MYCN, doxycycline-inducible MYCN). The test is described as follows: area under dose-response curve (CellTiter-Glo viability normalised to plate controls) (AUC (arbitrary units)); higher = more loss of viability; extreme values may be limits of the assay. A digest of the protocol: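 SK-N-MM cells with doxycycline-inducible MYCN were plated at 1250 cells/100 μL in 96-well plates and given medium with or without doxycycline about 24 h later. Two days later, 10-point 1:3 compound dilution series were pin-transferred (890-fold stock dilution) and re-dosed on day 4. CellTiter-Glo luminescence was read 3 or 8 days after drugging. Log2 signals were normalised to plate positive and negative controls, and area under the dose-response curve was computed.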
(ATP-based viability assays read luminescence as a measure of living cells.)

Where [1] appears, read: MYCN induction (doxycycline): +doxycycline (MYCN induced), time after drugging: 3 days.
[2] abbreviates: MYCN induction (doxycycline): +doxycycline (MYCN induced), time after drugging: 8 days.
Where [3] appears, read: MYCN induction (doxycycline): no doxycycline (MYCN not induced), time after drugging: 3 days.
[4] abbreviates: MYCN induction (doxycycline): no doxycycline (MYCN not induced), time after drugging: 8 days.

± gives the standard deviation of the averaged measurements.

Consider `Cn1c(=O)n(-c2ccc(C(C)(C)C#N)cc2)c2c3cc(-c4cnc5ccccc5c4)ccc3ncc21` [DACTOLISIB], for which the “area under dose-response curve” value under setting [1] stood at 73.9, the “area under dose-response curve” value under setting [2] was found to be 132, the “area under dose-response curve” value under setting [3] is 62.3 and the “area under dose-response curve” value under setting [4] is 96.3.

On to `CCC1=C[C@@H]2CN(C1)Cc1c([nH]c3ccccc13)[C@@](C(=O)OC)(c1cc3c(cc1OC)N(C)[C@H]1[C@@](O)(C(=O)OC)[C@H](OC(C)=O)[C@]4(CC)C=CCN5CC[C@]31[C@@H]54)C2` [VINORELBINE], for which the “area under dose-response curve” value by setting is: under setting [1], 207; under setting [2], 296; under setting [3], 99.3; under setting [4], 144.

Regarding `CC(=O)OC[C@H]1O[C@@H]([S-])[C@H](OC(C)=O)[C@@H](OC(C)=O)[C@@H]1OC(C)=O.CCP(CC)CC.[Au+]` [AURANOFIN], the “area under dose-response curve” value by setting is: under setting [1], 199; under setting [2], 223; under setting [3], 188; under setting [4], 208.

Take `CC12CC3CC(C)(C1)CC(N)(C3)C2` [MEMANTINE]: the “area under dose-response curve” value came out at 0 under setting [1], 0 under setting [2], 0 under setting [3] and 0 under setting [4].

In the case of `Cc1oncc1C(=O)Nc1ccc(C(F)(F)F)cc1` [LEFLUNOMIDE], the “area under dose-response curve” value under setting [1] amounted to 0, the “area under dose-response curve” value under setting [2] amounted to 5.53, the “area under dose-response curve” value under setting [3] came to 0 and the “area under dose-response curve” value under setting [4] is 16.7.

With `CNC(=O)c1ccc(N2C(=S)N(c3ccc(C#N)c(C(F)(F)F)c3)C(=O)C2(C)C)cc1F` [ENZALUTAMIDE], the “area under dose-response curve” value was 0 under setting [1], 0 under setting [2], 0 under setting [3] and 0 under setting [4].

For the compound `CCN(CC)CCNC(=O)c1c(C)[nH]c(/C=C2\C(=O)Nc3ccc(F)cc32)c1C` [SUNITINIB], the “area under dose-response curve” value by setting is: under setting [1], 3.49; under setting [2], 132; under setting [3], 3.64; under setting [4], 140.

In the case of `CC(/C=C/C(=O)NO)=C\[C@@H](C)C(=O)c1ccc(N(C)C)cc1` [TRICHOSTATIN A], the “area under dose-response curve” value was 159 under setting [1], 310 under setting [2], 124 under setting [3] and 282 under setting [4].

For `Cc1nc(=O)c2cc(CN(C)c3ccc(C(=O)N[C@@H](CCC(=O)O)C(=O)O)s3)ccc2[nH]1` [RALTITREXED], the “area under dose-response curve” value is, setting by setting: under setting [1], 22.3; under setting [2], 166; under setting [3], 6.42; under setting [4], 63.1.

Consider `C[C@H]1C[C@H]2[C@@H]3CCC4=CC(=O)C=C[C@]4(C)[C@@]3(F)[C@@H](O)C[C@]2(C)[C@@]1(O)C(=O)CO` [BETAMETHASONE], for which the “area under dose-response curve” value worked out at 0 under setting [1], 0 under setting [2] and 0 under setting [3].

For the compound `N#CC[C@H](C1CCCC1)n1cc(-c2ncnc3[nH]ccc23)cn1` [RUXOLITINIB], the “area under dose-response curve” value is 27.6 under setting [1], 121 under setting [2], 22.3 under setting [3] and 100 under setting [4].

Turning to `COC1=CC(c2cc3ccccc3[nH]2)=N/C1=C\c1[nH]c(C)cc1C` [OBATOCLAX], the “area under dose-response curve” value was 195 under setting [1], 255 under setting [2], 178 under setting [3] and 229 under setting [4].

Take `CN(C)CCCNC(=O)c1ccc(-c2cc(O)c3ncccc3c2)cc1` [ML324]: the “area under dose-response curve” value runs as follows: under setting [1], 16.5; under setting [2], 109; under setting [3], 4.85; under setting [4], 68.6.

Take `O=C(CCCCCCNC(=O)c1cnc(N(c2ccccc2)c2ccccc2)nc1)NO` [ROCILINOSTAT]: the “area under dose-response curve” value was 43.9 under setting [1], 94.7 under setting [2], 20.4 under setting [3] and 76.4 under setting [4].

In the case of `COc1ncc(-c2ccc3nccc(-c4ccnnc4)c3c2)cc1NS(=O)(=O)c1ccc(F)cc1F` [OMIPALISIB], the “area under dose-response curve” value under setting [1] was found to be 105, the “area under dose-response curve” value under setting [2] is 183, the “area under dose-response curve” value under setting [3] came out at 86.2 and the “area under dose-response curve” value under setting [4] stood at 160.

Turning to `CCc1nc(N)nc(N)c1-c1ccc(Cl)cc1` [PYRIMETHAMINE], the “area under dose-response curve” value by setting is: under setting [1], 13.5; under setting [2], 65.7; under setting [3], 5.97; under setting [4], 22.1.

Regarding `Cc1c(CN2CCC(Nc3ncnc4sc(CC(F)(F)F)cc34)CC2)ccc2c1cc(C#N)n2Cc1cn[nH]c1` [MI-503], the “area under dose-response curve” value was determined as 131 under setting [1], 177 under setting [2] and 169 under setting [4].

With `CS(=O)(=O)c1ccc(C(=O)Nc2ccc(Cl)c(-c3ccccn3)c2)c(Cl)c1` [VISMODEGIB], the “area under dose-response curve” value is, setting by setting: under setting [1], 0; under setting [2], 0; under setting [3], 0; under setting [4], 0.

Turning to `COC(=O)[C@]12CCC(C)(C)C[C@H]1[C@H]1C(=O)C=C3[C@@]4(C)C=C(C#N)C(=O)C(C)(C)[C@@H]4CC[C@@]3(C)[C@]1(C)CC2` [BARDOXOLONE METHYL], the “area under dose-response curve” value reads like this: under setting [1], 212; under setting [2], 243; under setting [3], 216; under setting [4], 226.

Regarding `CN(C)C/C=C/C(=O)Nc1ccc(C(=O)Nc2cccc(Nc3ncc(Cl)c(-c4c[nH]c5ccccc45)n3)c2)cc1` [THZ1], the “area under dose-response curve” value runs as follows: under setting [1], 102; under setting [2], 240; under setting [3], 51.7; under setting [4], 190.

As to `CO[C@H]1C[C@@H]2CC[C@@H](C)[C@@](O)(O2)C(=O)C(=O)N2CCCC[C@H]2C(=O)O[C@H]([C@H](C)C[C@@H]2CC[C@@H](OCCO)[C@H](OC)C2)CC(=O)[C@H](C)/C=C(\C)[C@@H](O)[C@@H](OC)C(=O)[C@H](C)C[C@H](C)/C=C/C=C/C=C/1C` [EVEROLIMUS], the “area under dose-response curve” value came out at 19.6 under setting [1], 0 under setting [2], 37.3 under setting [3] and 21.4 under setting [4].

Regarding `Oc1ccc(C2=Cc3ccc(O)cc3OC2)cc1` [IDRONOXIL], the “area under dose-response curve” value is, setting by setting: under setting [1], 38.3; under setting [2], 77.4; under setting [3], 17.5; under setting [4], 46.3.

`O=C(Nc1ccc(Nc2nccc(Nc3cc(C4CCCC4)[nH]n3)n2)cc1)Nc1cccc(C(F)(F)F)c1` [CD532]: the “area under dose-response curve” value is, setting by setting: under setting [1], 175; under setting [2], 211; under setting [3], 156; under setting [4], 191.

With `Cc1cc(C2CCCCC2)n(O)c(=O)c1` [CICLOPIROX], the “area under dose-response curve” value by setting is: under setting [1], 0; under setting [2], 97.9; under setting [3], 15.5; under setting [4], 41.6.

For the compound `O=C1c2c(O)ccc(O)c2C(=O)c2c(NCCNCCO)ccc(NCCNCCO)c21` [MITOXANTHRONE], the “area under dose-response curve” value under setting [1] was determined as 166, the “area under dose-response curve” value under setting [2] was determined as 325, the “area under dose-response curve” value under setting [3] amounted to 119 and the “area under dose-response curve” value under setting [4] is 258.

On to `COc1cc2c(cc1-c1c(C)noc1C)ncc1[nH]c(=O)n([C@H](C)c3ccccn3)c12` [I-BET151], for which the “area under dose-response curve” value came to 10.5 under setting [1], 46.3 under setting [2], 14.6 under setting [3] and 36.3 under setting [4].

For `Nc1nccc2c1ncn2[C@@H]1C=C(CO)[C@@H](O)[C@H]1O` [3-DEAZANEPLANOCIN], the “area under dose-response curve” value under setting [1] amounted to 15.9, the “area under dose-response curve” value under setting [2] came out at 119, the “area under dose-response curve” value under setting [3] was found to be 10.3 and the “area under dose-response curve” value under setting [4] was determined as 40.9.

`CN1CCC(CNc2ccc3ncc(-c4cccc(OC(F)(F)F)c4)n3n2)CC1` [SGI-1776]: the “area under dose-response curve” value is, setting by setting: under setting [2], 144; under setting [4], 138.

For `CC(=O)O[C@@]12CO[C@@H]1C[C@H](O)[C@@]1(C)C(=O)[C@H](O)C3=C(C)[C@@H](OC(=O)[C@H](O)[C@@H](NC(=O)OC(C)(C)C)c4ccccc4)C[C@@](O)([C@@H](OC(=O)c4ccccc4)[C@H]21)C3(C)C` [DOCETAXEL], the “area under dose-response curve” value runs as follows: under setting [1], 142; under setting [2], 292; under setting [3], 107; under setting [4], 183.

Regarding `Cc1cnc(Nc2ccc(OCCN3CCCC3)cc2)nc1Nc1cccc(S(=O)(=O)NC(C)(C)C)c1` [FEDRATINIB], the “area under dose-response curve” value reads like this: under setting [1], 109; under setting [2], 176; under setting [3], 102; under setting [4], 151.

`CO[C@H]1C[C@@H]2CC[C@@H](C)[C@@](O)(O2)C(=O)C(=O)N2CCCC[C@H]2C(=O)O[C@H]([C@H](C)C[C@@H]2CC[C@@H](OC(=O)C(C)(CO)CO)[C@H](OC)C2)CC(=O)[C@H](C)/C=C(\C)[C@@H](O)[C@@H](OC)C(=O)[C@H](C)C[C@H](C)/C=C/C=C/C=C/1C` [TEMSIROLIMUS]: the “area under dose-response curve” value under setting [1] was determined as 8.87 ± 0.32 and the “area under dose-response curve” value under setting [4] stood at 43.4.
